Results reported in patent US9173935B2, “Phospholipid drug analogs” (Telormedix SA, priority 2010, dated 2015).
“And” between values parts separate entries of the source, which are not always exact repeats. Equal values may be shown once. Read-outs that look alike come from different tables or passages of the source.

Experiments:
[1] = Serum exposure after intravesical chronic treatment
Protocol: Serum samples were taken at time points: day 0, 2 hours, day 1, 24 hours, and day 6, 2 hours.
The plate was shaken for 10 minutes and filtered under vacuum (5-10 mm Hg). […] The plate was shaken for 10 minutes and filtered under vacuum (5-10 mm Hg). Samples were evaporated and re-suspended in 70 microliters of acetonitrile/methanol 1:1. […] Column: Acquity BEH C18 50×2.1 mm 1.7 micrometers; injection volume 5 microliters, T column 50° C. […] Column: Acquity BEH C8 50×2.1 mm 1.7 micrometers injection. volume 10 microliters, T column 50° C.

[2] = Stability of solid samples with respect to heat (80° C.), HPLC; type: physicochemical
Protocol: Solid samples of each compound were maintained at 80° C. and analyzed by HPLC.

[3] = system: Salmonella typhimurium TA1535, TA1537, TA98, TA100; assay: Bacterial mutation assay, Salmonella typhimurium; settings: absence or presence of S9 metabolism
Protocol: The five tester strains TA1535, TA1537, TA98, TA100 and WP2 uvrA were used. Experiments were performed both in the absence and presence of metabolic activation, using liver S9 fraction from rats pre-treated with phenobarbitone and betanaphthoflavone. SC12 was used as a solution in dimethylsulfoxide (DMSO).

[4] = system: RAW.264 cells; assay: Intracellular uptake in RAW.264 cells (LC-MS); type: cell-based; settings: 10 microM
Protocol: 5×10^6 RAW.264 cells were adhered overnight in 10 cm tissue culture dishes. […] […] Supernatant (2 ml) and cells (pellets) were collected by trypsinization and frozen at […] for subsequent analysis by LC-MS.

[5] = system: AY-27 rat bladder cancer cell-line; settings: in vivo
[6] = Plasma stability, second experiment, human plasma; settings: human plasma, second experiment
Protocol: Second experiment: Test compounds (5 mM in DMSO) were diluted at the final concentration of 250 μM with ACN-MeOH 1:1.
Human plasma (1.180 ml) was spiked with 20 μl of 250 μM solution of the compound (4.16 μM final concentration) and aliquots of 50 μl volume were taken at 0, 15, 30, 60, 120 min and 5 hrs, and immediately quenched with 200 μl of a solution of Verapamil 250 ng/ml (internal standard, I.S.) in ACN:MeOH 95:5. Samples were then centrifuged for 20 min at 3000 rpm at 10° C. and analyzed as reported below. […] The supernatant fractions were analyzed by LC/MS/MS. Zero-time incubations were used as 100% values.
Stability was calculated as percentage remaining of the area ratio compound/I.S. at each time point vs. area ratio compound/I.S. at time 0 min.

[7] = system: Raw264.7 mouse macrophage cell line; assay: IL-6 and TNF-alpha secretion in Raw264.7 cells (ELISA); type: cell-based; settings: 24 hours treatment, 7 doses
Protocol: EC50 values were determined for control and each drug candidate for IL-6 and TNF-alpha secretion. […] The cells were plated in 96 well plates and treated with TLR7 agonists for 24 hours in 7 doses. The conditioned media was removed after 24 hours for ELISA analyses. The cells were subsequently assayed for viability using the XTT assay according to the guidelines from the supplier. […] The experiment was performed in quadruplicate wells for each testing series, and the supernatant pooled and measured by ELISA in triplicates. Concentrations of IL-6 and TNF-alpha were determined by ELISA from R&D Systems using the Microsoft Excel Software. The results were analyzed in Graph Pad Prism in order to prepare dose-response curves, and for determination of EC50 values.

[8] = molecular target: CYP2C9 (Homo sapiens (Human), UniProt P11712); assay: Fluorescent High Throughput P450 assay, CYP2C9; type: biochemical; settings: substrate MFC; read-out: CYP2C9 IC50 (Mean ± S.D.)
Protocol: Inhibition of the P450 isoforms was measured in specific assays using specific substrates that become fluorescent upon CYP metabolism. Compounds, dissolved in ACN (acetonitrile) (CYP2E1, CYP2C8, CYP2B6, CYP3A5) or DMSO (all remaining isoforms), were tested in duplicate (n=2) in concentration-response curves (eight concentrations) in a 96-well plate containing incubation/NADPH regenerating buffer. Specific isoenzymes and substrates were added and incubated at 37° C. Reactions were terminated at different times, depending on the assays, and plates read on a Fluoroskan Ascent at the appropriate emission/excitation wavelengths. Concentration-response curves performed in duplicate for known inhibitors for each isoenzyme were tested in every assay as positive control.

[9] = system: AY-27 rat bladder cancer cell-line
[10] = system: HLA-DR+/CD11c+/CD123- mDCs; assay: FACS analysis of myeloid DC activation in whole blood; type: cell-based, human; settings: 24 hours, 0.1 and 0.5 uM, three donors
Protocol: A flow cytometric analysis was performed on whole blood from three donors after treatment with two compound concentrations for 24 h. The FACS analysis for donor 1 and donor 2 was made on another day than donor 3. The compound concentrations were as follows:
The FACS analysis was used to identify whether the test compounds could induce activation of B cells, and two different subsets of dendritic cells, namely the myeloid CD11c+/CD123− DCs and the plasmacytoid CD11c−/CD123+ DCs. The following markers were studied to identify the activation status of the different subsets:
The FACS staining was performed according to the manufacturer's instructions. Lysis of red blood cells was performed before FACS staining in order to minimize auto-florescence. To include as many B cells and DCs in the study as possible the FACS analyses were performed on 500,000 cells in total for each staining. A P1 gate was set only to include relevant cells on FSC vs. SSC (see FIGS. 12-15). The results of the individual analysis were present as Mean Fluorescence Intensity
The analysis of myeloid DCs was based on HLA-DR+/CD11c+/CD123-cells, thus all analyzed cells was included in the HLA-DR+ (P3) gate and CD11c+/CD123− (Q4) gate (see gates in FIGS. 13-15).

[11] = system: receptors associated with pain-related syndromes (e.g. adenosine and sodium channel); assay: Radioligand binding assay among 73 primary molecular targets; settings: SC12 at fixed concentration of 30 microM
[12] = Storage stability by HPLC (solid or chloroform solution; temperature, light); type: physicochemical
Protocol: At this point, a stability study was conducted on batch CH730/16/8g.
The samples were analyzed at t=0 and after 20 days.

[13] = Day 1, 24 hours, LLOQ 0.5 ng/ml SC12, 2.5 ng/ml Imiquimod
[14] = Day 6, 2 hours, LLOQ 0.5 ng/ml SC12, 2.5 ng/ml Imiquimod
[15] = day 12, group 1 Imiquimod 0.1%, group 2 SC12 0.38%

CYP2C9, sequence (P11712 whole entry, looked up): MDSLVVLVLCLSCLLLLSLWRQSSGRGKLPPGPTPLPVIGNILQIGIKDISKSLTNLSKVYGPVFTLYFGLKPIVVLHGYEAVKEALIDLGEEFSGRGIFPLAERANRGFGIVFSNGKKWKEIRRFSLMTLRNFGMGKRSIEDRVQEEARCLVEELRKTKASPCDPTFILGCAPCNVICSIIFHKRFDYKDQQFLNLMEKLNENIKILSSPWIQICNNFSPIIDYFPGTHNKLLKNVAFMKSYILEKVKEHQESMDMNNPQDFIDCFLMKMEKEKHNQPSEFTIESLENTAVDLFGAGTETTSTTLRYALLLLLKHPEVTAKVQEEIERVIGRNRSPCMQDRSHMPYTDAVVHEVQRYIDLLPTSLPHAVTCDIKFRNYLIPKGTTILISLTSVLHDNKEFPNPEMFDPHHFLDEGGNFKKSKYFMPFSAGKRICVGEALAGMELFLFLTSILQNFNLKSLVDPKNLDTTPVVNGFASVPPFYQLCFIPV

CCCCCCCCCCCC(=O)OCC(COP(=O)(O)OCCNC(=O)c1ccc(Cn2c(=O)[nH]c3c(N)nc(OCCOC)nc32)cc1)OC(=O)CCCCCCCCCCC (stereo not drawn) [SC12]
Levels in serum, Mean ± S.D. ([1]; Day 0, 2 hours): 0.5 ± 0.5 ng/mL
Levels in serum, individual mice ([1]; Day 0, 2 hours, intravesical Imiquimod 208 nmol or SC12 206.5 nmol, LLOQ 0.5 ng/ml SC12, 2.5 ng/ml Imiquimod): <LLOQ (2×) and 1.0 ng/ml and 0.5 ng/ml
Levels in serum, Mean ± S.D. [1, 13]: <LLOQ
Levels in serum, individual mice [1, 13]: <LLOQ
Levels in serum, Mean ± S.D. [1, 14]: <LLOQ
Levels in serum, individual mice [1, 14]: <LLOQ
HPLC purity of solid sample ([2]; After 2 hrs at 80° C.): 90% HPLC
HPLC purity of solid sample ([2]; After 22 hrs at 80° C.): 88% HPLC
HPLC purity of solid sample ([2]; t = 0): 90% HPLC
Toxicity to tester strains ([3]; 50.0-5000 micrograms/plate): No toxicity was observed
Reverse mutation ([3]; up to 5000 micrograms/plate): does not induce reverse mutation
Intracellular Concentration ([4]; incubation 1 hours): 18.5 % of total
Intracellular Concentration ([4]; incubation 6 hours): 20.6 % of total
Intracellular Concentration ([4]; incubation 18 hours): 21.4 % of total
Signs of toxicity [5]: No signs of toxicity
% Remaining ([6]; 0 min): 100%
% Remaining ([6]; 15 min): 112.6 ± 1.0%
% Remaining ([6]; 30 min): 110.0 ± 1.0%
% Remaining ([6]; 60 min): 96.7 ± 6.3%
% Remaining ([6]; 120 min): 102.1 ± 8.7%
Plasma stability classification ([6]; up to 120 min): stable
EC50 ([7]; read-out: EC 50 IL 6): 42 nM
EC50 ([7]; read-out: EC 50 TNF-alpha): 41 nM
IC50 [8]: 33400 ± 300 nM
Number of rats with a tumor positive bladder ([9]; day 12): 8 of 14
Rats with pT2 Tumor, number (% of 14) [9, 15]: 7 (50.0%)
Tumor free rats, number (% of 14) [9, 15]: 6 (42.9%)
Rats with pTa Tumor, number (% of 14) ([9]; day 12, group 2 SC12 0.38%): 1 (7.1%)
Mean weight of the rat bladders ([9]; day 12, intravesical 0.5 ml on day 2 and 5, group 1 Imiquimod 0.1%, group 2 SC12 0.38%): 0.1014 grams
Mean number of tumors per rat bladder ([9]; group 1 Imiquimod 0.1%, group 2 SC12 0.38%): 1.36
Mean invasion depth ([9]; tumor positive bladders, group 1 Imiquimod 0.1%, group 2 SC12 0.38%): 1.4250 mm
CCR7 expression on mDCs [10]: less potent stimulator of CCR7 expression
CD80 expression on mDCs [10]: induced a noteworthy CD80 expression in all three donors
CD86 expression on mDCs [10]: induces a weak CD86 expression in donor 2 and 3, but not in donor 1
Binding to receptors associated with pain-related syndromes [11]: did not bind
HPLC RRT = 1 ([12]; Solid, RT and light, t = 20 days): RRT = 1: 87.8%
HPLC RRT = 1 ([12]; Solid, external T and light, t = 20 days): RRT = 1: 84.0%
HPLC RRT = 1 ([12]; Solution in CHCl3, RT and light, t = 20 days): RRT = 1: 88.0%
HPLC RRT = 1 ([12]; t = 0): RRT = 1: 90.3%
